Results as given in patent US6753329B2, “Inhibitors of cyclin-dependent kinases, compositions and uses related thereto” (GPC Biotech Inc., priority 2001, dated 2004).
Read-outs that look alike come from different tables or passages of the source.

How the values were obtained:
[1] = biological target: T1, Cdk2/cyclin A (Homo sapiens, UniProt P24941); assay: Cdk2/cyclin A inhibition assay; type: biochemical; conditions: read-out: K2/A
T1 construct: made in house; host or cells: Sf9 cells
From the text: (§1) Enzymes: Cdc2/cyclin B was obtained from commercial sources. Cdk2/his-cyclin Eshort was expressed in Sf9 cells. Cdk2/cyclin A, cdk4/cyclin D1, and cdk6/cyclin D2 were expressed in Sf9 cells. Protein kinase A (catalytic subunit, from bovine heart) and protein kinase C (mixed isozymes from rat brain) were obtained from commercial sources.

[2] = biological target: T2, CDK2/cyclinE (Homo sapiens, UniProt P24941); assay: Cdk2/cyclin E inhibition, glutathione-sepharose capture assay; type: biochemical; set-up: made in house; host or cells: Sf9 insect cells; conditions: 50 μM ATP, GST-Rb substrate; read-out: K2/E
From the text: as §1
(§2) Substrates: Histone H1 was from commercial sources. GST-Rb is glutathione-S-transferase fused to the N-terminal of residues 379-928 of the Rb protein.
(§3) Cdk2/cyclin E, Cdk4/cyclin D1, and Cdk6/cyclin D2 activity was determined using a glutathione-sepharose capture assay. The enzymes were expressed in Sf9 insect cells as heterodimers, and the substrate (GST-Rb) was glutathione-S-transferase fused to residues 379 to 928 of Rb retinoblastoma protein, expressed in E. coli. The assay solution contained 50 mM Tris.HCl, 10 mM MgCl2, 1 mM dithiothreitol, 50 μM adenosine triphosphate, 2 μCi [γ-^33P]adenosine triphosphate, 10% dimethylsulfoxide (from compounds), pH 7.5, 40 µg GST-Rb, and enzyme in a 100 μL volume. Compounds were added at various concentrations between 1 nM and 10 μM. The reaction was allowed to proceed for 15 min at 30° C. and was stopped by the addition of 70 μL of stop solution (237 mM disodium ethylenediamine tetraacetate, 105 mM adenosine triphosphate, pH 8.0). The GST-Rb was captured by binding to glutathione-sepharose bead (Amersham) for 110 min, and the suspension was filtered through a glass fiber filter. After washing the retained beads five time with phosphate-buffered saline containing 0.3% (w/v) Tween-20, the amount of ^33P incorporated was determined by scintillation counting after adding 100 μL scintillant. Relative activity was determined by dividing the amount of radioactivity incorporated in the presence of compound by the amount of radioactivity incorporated in a control experiment containing DMSO alone but no compound. The background radioactivity, determined in an experiment containing 50 mM disodium ethylenediamine tetraacetate in place of compound, was subtracted from all results before calculations.

[3] = biological target: T3, Cdk6/cyclin D2 (Homo sapiens, UniProt Q00534); assay: Cdk6/cyclin D2 inhibition, glutathione-sepharose capture assay; type: biochemical; conditions: 50 μM ATP, GST-Rb substrate; read-out: K6/D2
T3 construct: made in house; host or cells: Sf9 insect cells
From the text: as §1, §2, §3

[4] = biological target: T4, Cdc2/cyclin B (Homo sapiens, UniProt P06493); assay: Cdc2/cyclin B inhibition, TCA precipitation assay; type: biochemical; conditions: 50 μM ATP, Histone H1 substrate
T4 construct: purchased
Protocol: as §1
Assays: Cdc2/cyclinB activity was determined by measuring incorporation of radioactivity from adenosine [γ-^32P]triphosphate into Histone H1 using a TCA precipitation assay. Cdc2/cyclin B kinase and Histone H1 were obtained from commercial sources. The final assay solution contained 50 mM Tris.HCl, 10 mM MgCl2, 1 mM dithiothreitol, 50 μM adenosine triphosphate, 2 μCi ^32P, 10% dimethylsulfoxide (from compounds), pH 7.5, 20 μg Histone H1, 6 U enzyme in a 50 μL volume. Compounds were added at various concentrations between 1 nM and 10 μM. The reaction was started with the addition of enzyme, allowed to proceed for 20 min at 30° C., and stopped by the addition of 20 μL of stop solution (237 mM disodium ethylenediamine tetraacetate, 105 mM adenosine triphosphate, pH 8.0). The protein was precipitated by the addition of 35 μL 70% (w/v) trichloroacetic acid, and the precipitate was captured on a 96-well glass fiber filter plate (Millipore, Inc.), which had been wet with 25% (w/v) trichloroacetic acid. The filter was washed ten times with 25% (w/v) trichloroacetic acid, and the amount of incorporated ^32P was determined by scintillation counting after adding 100 μL scintillant (Microscint 20, Packard Instruments). Relative activity was determined by dividing the amount of radioactivity incorporated in the presence of compound by the amount of radioactivity incorporated in a control experiment containing DMSO alone but no compound. The background radioactivity, determined in an experiment containing 50 mM EDTA in place of compound, was subtracted from all results before calculations.
P=min+(max−min)(1/(1+(IC50/[I])^s)) (1)
where P=1—relative activity is relative inhibition, [I] is concentration of compound, max and min are the maximum and minimum relative inhibition (1 and 0, respectively) and s is the so-called Hill slope.

[5] = biological target: T5, Cdk4/cyclin D1 (Homo sapiens, UniProt P11802); assay: Cdk4/cyclin D1 inhibition, glutathione-sepharose capture assay; type: biochemical; conditions: read-out: K4/D1
T5 construct: made in house; host or cells: Sf9 insect cells
From the text: as §1, §2, §3

[6] = biological target: T6, Protein kinase A (catalytic subunit, from bovine heart) (Bos taurus, UniProt P00517); assay: Protein kinase A inhibition, TCA precipitation assay; type: biochemical; conditions: 12 μM ATP, Histone H1; read-out: PKA
T6 construct: Protein kinase A (catalytic subunit, from bovine heart); purchased; host or cells: bovine heart
Protocol: as §1
Protein kinase C and protein kinase A were assayed using a TCA precipitation assay with Histone H1 as a substrate. For protein kinase A, the final assay contained 50 mM Tris, 10 mM MgCl2, 1 mM dithiothreitol, pH 7.5, 12 μM adenosine triphosphate, 10% (v/v) dimethylsulfoxide (from compounds), 20 μg Histone H1, 2 μCi [γ-^32P] adenosine triphosphate, 0.2 U protein kinase A in a 100 μL assay. A protein kinase C assay contained 50 mM Tris, 10 mM MgCl2, 1 mM dithiothreitol, 0.8 mM CaCl2, pH 7.5, 5 μM adenosine triphosphate, 10% (v/v) dimethylsulfoxide (from compounds), 20 μg Histone H1, 2 μCi [γ-^32P] adenosine triphosphate, 0.01 U protein. kinase C in a 50 μL assay. The assays were started by the addition of enzyme, allowed to react for 10 min at 30° C., and stopped by adding 0.4 volumes of 237 mM disodium ethylenediamine tetraacetate, 105 mM adenosine triphosphate, pH 8.0. The protein was precipitated from the stopped reaction by adding 0.5 volume 75% (w/v) trichloroacetic acid and captured by filtering through a 96-well glass fiber filtration apparatus (Millipore). The filters were washed ten times with 25% (w/v) trichloroacetic acid, and the amount of incorporated [^32P]phosphate was determined by adding 100 μl Microscint and scintillation counting.

[7] = biological target: c-Abl (Homo sapiens, UniProt P00519); assay: c-Abl inhibition; type: biochemical
[8] = biological target: T2, CDK2/cyclinE; assay: BIACORE SPR binding of CDK2/cyclinE to compound-loaded CM5 chip; conditions: 22° C., compound coupled to CM5 chip, Langmuir 1:1 model
Protocol: The affinity of chemical compounds to their corresponding binding partners may be determined, for example, using a BIACORE™ assay system (Biacore AB, Uppsala, SE). Other systems yielding a qualitatively similar result, such as, for example, those developed by Affinity Sensors (Cambridge, UK), will be readily apparent to those skilled in the art.
In a representative procedure, the binding of Compound R to its known binding partners CDK2/cyclinE was analyzed. The analysis was performed on a BLACORE 2000 SPR-Biosensor at 22° C. in a running buffer containing 20 mM HEPES (pH 7.4), 150 mM NaCl, 1 mM DTT and 0.005% Tween 20 (protein grade, Calbiochem). A 10 μM solution of Compound R was coupled at pH 8.0 to the dextrane-surface of a CM5 sensor-chip (research grade) via amide coupling chemistry. […] The association and dissociation of the CDK2/cyclinE complex onto the CM5-Compound R-loaded chip surface was measured at a flow rate of 30 μl/min. […]
The data were analyzed using the Bioevaluation software version 3.1 (Biacore AB, Uppsala, SE). […] The association and dissociation rates were determined separately or globally using a Langmuir 1:1 binding model. The affinities (KD) were calculated using the equation: […]

Chain of c-Abl (P00519 whole entry): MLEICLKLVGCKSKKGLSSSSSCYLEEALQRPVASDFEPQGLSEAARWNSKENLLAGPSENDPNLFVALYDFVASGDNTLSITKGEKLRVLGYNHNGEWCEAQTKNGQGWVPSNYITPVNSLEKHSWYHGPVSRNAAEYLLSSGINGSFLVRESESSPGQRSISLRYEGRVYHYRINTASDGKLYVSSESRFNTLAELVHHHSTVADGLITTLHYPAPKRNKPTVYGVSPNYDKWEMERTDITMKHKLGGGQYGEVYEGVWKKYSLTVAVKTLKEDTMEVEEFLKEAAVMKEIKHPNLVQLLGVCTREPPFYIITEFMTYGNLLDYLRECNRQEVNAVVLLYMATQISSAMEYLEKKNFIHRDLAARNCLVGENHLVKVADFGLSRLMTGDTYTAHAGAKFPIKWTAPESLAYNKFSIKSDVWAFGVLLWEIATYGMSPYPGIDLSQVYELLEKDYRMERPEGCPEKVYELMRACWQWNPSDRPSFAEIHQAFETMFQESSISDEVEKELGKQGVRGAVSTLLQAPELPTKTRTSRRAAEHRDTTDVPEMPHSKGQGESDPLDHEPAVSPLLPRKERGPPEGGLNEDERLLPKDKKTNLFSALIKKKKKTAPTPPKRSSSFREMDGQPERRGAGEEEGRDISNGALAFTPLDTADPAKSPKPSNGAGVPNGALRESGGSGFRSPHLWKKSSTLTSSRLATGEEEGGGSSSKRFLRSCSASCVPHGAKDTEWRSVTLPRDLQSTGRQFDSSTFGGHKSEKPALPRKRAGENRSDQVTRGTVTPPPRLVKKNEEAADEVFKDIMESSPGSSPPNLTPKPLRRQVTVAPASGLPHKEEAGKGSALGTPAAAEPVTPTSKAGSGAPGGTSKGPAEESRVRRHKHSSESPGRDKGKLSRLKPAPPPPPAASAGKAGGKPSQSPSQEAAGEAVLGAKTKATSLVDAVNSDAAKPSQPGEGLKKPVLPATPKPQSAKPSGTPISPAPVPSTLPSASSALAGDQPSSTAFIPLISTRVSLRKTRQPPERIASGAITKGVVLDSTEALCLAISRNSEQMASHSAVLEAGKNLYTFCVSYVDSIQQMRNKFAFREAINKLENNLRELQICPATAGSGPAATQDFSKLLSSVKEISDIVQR
T5 sequence (P11802 whole entry, species assumed): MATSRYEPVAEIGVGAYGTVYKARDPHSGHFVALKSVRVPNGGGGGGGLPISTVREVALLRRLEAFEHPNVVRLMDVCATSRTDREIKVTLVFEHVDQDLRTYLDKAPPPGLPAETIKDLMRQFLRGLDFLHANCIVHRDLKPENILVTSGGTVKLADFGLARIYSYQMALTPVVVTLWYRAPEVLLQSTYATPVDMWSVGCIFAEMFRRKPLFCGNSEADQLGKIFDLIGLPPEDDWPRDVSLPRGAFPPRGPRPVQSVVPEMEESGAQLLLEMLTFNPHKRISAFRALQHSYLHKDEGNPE
T5 sequence (P24385 whole entry partner, species assumed): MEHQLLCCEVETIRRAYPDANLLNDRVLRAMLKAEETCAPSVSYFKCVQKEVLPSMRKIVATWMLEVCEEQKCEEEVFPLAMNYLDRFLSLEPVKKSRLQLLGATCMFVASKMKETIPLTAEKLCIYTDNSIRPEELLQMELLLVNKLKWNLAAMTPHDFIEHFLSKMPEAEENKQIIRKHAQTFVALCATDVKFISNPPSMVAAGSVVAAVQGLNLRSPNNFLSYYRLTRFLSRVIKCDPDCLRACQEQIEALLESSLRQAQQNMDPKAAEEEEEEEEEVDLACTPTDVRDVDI
T4 sequence (P06493 whole entry, species assumed): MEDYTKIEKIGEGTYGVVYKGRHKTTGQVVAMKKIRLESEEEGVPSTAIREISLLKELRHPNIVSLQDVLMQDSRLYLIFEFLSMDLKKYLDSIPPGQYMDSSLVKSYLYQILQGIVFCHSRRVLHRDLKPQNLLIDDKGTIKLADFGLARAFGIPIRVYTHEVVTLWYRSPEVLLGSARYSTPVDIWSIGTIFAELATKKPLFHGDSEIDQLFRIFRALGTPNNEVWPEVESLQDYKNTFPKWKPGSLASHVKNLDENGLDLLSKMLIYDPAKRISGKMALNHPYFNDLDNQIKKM
T4 sequence (P14635 whole entry partner, species assumed): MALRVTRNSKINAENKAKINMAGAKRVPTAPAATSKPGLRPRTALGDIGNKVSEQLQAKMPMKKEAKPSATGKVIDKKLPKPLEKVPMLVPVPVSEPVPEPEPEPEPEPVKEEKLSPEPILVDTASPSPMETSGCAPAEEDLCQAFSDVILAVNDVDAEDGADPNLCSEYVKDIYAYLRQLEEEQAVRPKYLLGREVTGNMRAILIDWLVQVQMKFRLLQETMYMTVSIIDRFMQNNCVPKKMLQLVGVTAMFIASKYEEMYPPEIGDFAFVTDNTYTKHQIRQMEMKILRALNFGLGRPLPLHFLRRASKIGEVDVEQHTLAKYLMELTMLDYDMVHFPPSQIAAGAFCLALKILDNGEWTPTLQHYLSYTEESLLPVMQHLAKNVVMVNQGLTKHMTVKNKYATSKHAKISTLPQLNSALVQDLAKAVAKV
T3 sequence (Q00534 whole entry, species assumed): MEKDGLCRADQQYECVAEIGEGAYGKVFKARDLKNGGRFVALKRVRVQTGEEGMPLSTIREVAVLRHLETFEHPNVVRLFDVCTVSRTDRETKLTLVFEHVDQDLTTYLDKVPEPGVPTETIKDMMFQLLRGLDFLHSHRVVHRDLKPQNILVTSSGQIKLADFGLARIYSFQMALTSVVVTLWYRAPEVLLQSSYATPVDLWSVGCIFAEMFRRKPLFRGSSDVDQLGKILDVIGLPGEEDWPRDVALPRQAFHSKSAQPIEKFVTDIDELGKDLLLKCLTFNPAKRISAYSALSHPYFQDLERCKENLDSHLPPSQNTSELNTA
T3 sequence (P30279 whole entry partner, species assumed): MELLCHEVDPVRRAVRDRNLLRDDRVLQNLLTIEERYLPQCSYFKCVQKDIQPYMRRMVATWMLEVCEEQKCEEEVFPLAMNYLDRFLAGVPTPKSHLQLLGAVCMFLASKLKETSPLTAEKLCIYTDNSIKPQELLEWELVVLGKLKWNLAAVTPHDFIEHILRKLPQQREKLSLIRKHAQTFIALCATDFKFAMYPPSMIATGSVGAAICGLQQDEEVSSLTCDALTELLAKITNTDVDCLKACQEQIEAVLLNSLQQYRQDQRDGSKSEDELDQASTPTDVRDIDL

Kd [8] [nM] | Compound | IC50 [1] [nM] | IC50 [2] [nM] | IC50 [3] [nM] | IC50 [4] [nM] | IC50 ([5]; 50 μM ATP, GST-Rb substrate) [nM] | IC50 [5] [nM] | IC50 [6] [nM] | IC50 [7] [nM]
– | CC(C)c1nn(-c2c(Cl)cc(Cl)cc2Cl)c2nc(Cc3ccc(OCCN4CCOCC4)cc3)[nH]c(=O)c12 [A] | < 100 | < 100 | < 1000 | < 1000 | < 1000 | < 1000 | – | –
– | CC(C)c1nn(-c2c(Cl)cccc2Cl)c2nc(Cc3ccc(OP(=O)(O)O)cc3)[nH]c(=O)c12 [B] | < 100 | < 10 | – | < 100 | < 10000 | – | – | –
– | CC(C)c1nn(-c2c(Cl)cccc2Cl)c2nc(Cc3ccc(O)c(CN4CCN(C(C)C)CC4)c3)[nH]c(=O)c12 [Compound C] | < 100 | < 100 | – | < 1000 | < 1000 | – | > 10000 | > 10000
– | O=C(Nc1cccc2c1C(=O)c1c-2n[nH]c1-c1ccc(OCCN2CCCC2)cc1)NN1CCOCC1 [Compound I] | < 100 | < 100 | – | < 100 | < 10 | – | – | –
– | Cc1cc(-c2[nH]nc3c2C(=O)c2c(NC(=O)NN4CCN(C)CC4)cccc2-3)ccc1OCCN1CCCC1 [Compound P] | – | < 100 | – | – | – | – | – | –
8 | CC(C)c1nn(-c2c(Cl)cc(Cl)cc2Cl)c2nc(Cc3ccc(OC(C)(C)C(=O)NCCOCCOCCOCCOCCOCCN)cc3)[nH]c(=O)c12 [Compound R] | – | – | – | – | – | – | – | –
– | CC(C)c1nn(-c2c(Cl)cc(Cl)cc2Cl)c2nc(Cc3ccc(NS(=O)(=O)CCCN4CCOCC4)cc3)[nH]c(=O)c12 [D] | < 100 | < 100 | – | < 1000 | < 1000 | – | – | –
– | CC(C)N1CCN(CCOc2ccc(-c3[nH]nc4c3C(=O)c3c(NC(=O)NN5CCOCC5)cccc3-4)cc2)CC1 [E] | < 10 | < 10 | < 10 | < 100 | < 10 | < 10 | < 10000 | < 10000
– | CN1CCN(NC(=O)Nc2cccc3c2C(=O)c2c-3n[nH]c2-c2ccc(OCCN3CCCC3)cc2)CC1 [F] | < 100 | < 100 | < 10 | < 100 | < 10 | < 10 | – | –
– | CCCN(CCOc1ccc(-c2[nH]nc3c2C(=O)c2c(NC(=O)NN4CCOCC4)cccc2-3)cc1)CC1CC1 [G] | < 100 | < 100 | – | < 100 | < 10 | – | > 10000 | > 10000
– | O=C(Nc1cccc2c1C(=O)c1c-2n[nH]c1-c1ccc(OCCN(CCO)CCO)cc1)NN1CCOCC1 [H] | < 100 | < 100 | – | < 100 | < 100 | – | – | –
– | O=C(Nc1cccc2c1C(=O)c1c-2n[nH]c1-c1ccc(OP(=O)(O)O)cc1)NN1CCOCC1 [J] | – | < 100 | – | – | – | – | – | –
– | CC(C)N1CCN(Cc2cc(-c3[nH]nc4c3C(=O)c3c(NC(=O)NN5CCOCC5)cccc3-4)ccc2O)CC1 [K] | – | < 100 | – | – | – | – | – | –
– | Cc1cc(OCCN2CCCC2)ccc1-c1[nH]nc2c1C(=O)c1c(NC(=O)NN3CCN(C)CC3)cccc1-2 [L] | – | < 100 | – | < 100 | < 100 | – | – | –
– | CN1CCN(NC(=O)Nc2cccc3c2C(=O)c2c-3n[nH]c2-c2ccc(OCCN3CCC[C@H]3CO)cc2)CC1 [M] | – | < 100 | – | – | – | – | – | –
– | CN1CCN(NC(=O)Nc2cccc3c2C(=O)c2c-3n[nH]c2-c2ccc(OCCN(CCO)CCO)cc2)CC1 [N] | – | < 100 | – | < 10 | – | – | – | –
– | CN1CCN(NC(=O)Nc2cccc3c2C(=O)c2c-3n[nH]c2-c2ccc(OCCN3CC[C@H](O)C3)cc2)CC1 [O] | – | < 100 | – | – | – | – | – | –
– | CN1CCN(NC(=O)Nc2cccc3c2C(=O)c2c-3n[nH]c2-c2ccc(OCCN3CCOCC3)cc2)CC1 [Q] | < 100 | < 10 | < 100 | < 100 | < 10 | < 100 | – | –
